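Each compound was tested at five concentrations against cells in 96-well plates for 48 hours. TGI: total growth inhibition.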
Tests used:
Experiment in all cases: NCI tumour cell line growth inhibition, 48 h
A549 NSCLC = test system: A549 NSCLC
OVCAR-5 ovarian = test system: OVCAR-5 ovarian
NCI-H23 lung = test system: NCI-H23 lung
OVCAR-8 ovarian = test system: OVCAR-8 ovarian
DU-145 prostate = test system: DU-145 prostate
SK-MEL-28 melanoma = test system: SK-MEL-28 melanoma
CAKI-1 renal = test system: CAKI-1 renal
RPMI-8226 leukemia = test system: RPMI-8226 leukemia
UO-31 renal = test system: UO-31 renal
SK-OV-3 ovarian = test system: SK-OV-3 ovarian
U251 CNS = test system: U251 CNS
SK-MEL-5 melanoma = test system: SK-MEL-5 melanoma
SK-MEL-2 melanoma = test system: SK-MEL-2 melanoma
OVCAR-4 ovarian = test system: OVCAR-4 ovarian
K-562 leukemia = test system: K-562 leukemia
BT-549 breast = test system: BT-549 breast
ACHN renal = test system: ACHN renal
MALME-3M melanoma = test system: MALME-3M melanoma
SF-268 CNS = test system: SF-268 CNS
NCI-H522 lung = test system: NCI-H522 lung
A498 renal = test system: A498 renal
HCT-116 colon = test system: HCT-116 colon
UACC-257 melanoma = test system: UACC-257 melanoma
UACC-62 melanoma = test system: UACC-62 melanoma
MCF7 breast = test system: MCF7 breast
RXF 393 renal = test system: RXF 393 renal
CCRF-CEM leukemia = test system: CCRF-CEM leukemia
EKVX NSCLC = test system: EKVX NSCLC
TK-10 renal = test system: TK-10 renal
SR leukemia = test system: SR leukemia
NCI-H460 lung = test system: NCI-H460 lung
OVCAR-3 ovarian = test system: OVCAR-3 ovarian
MDA-MB-435 = test system: MDA-MB-435
LOX IMVI melanoma = test system: LOX IMVI melanoma
SW-620 colon = test system: SW-620 colon
MDA-MB-231 breast = test system: MDA-MB-231 breast
IGROV1 ovarian = test system: IGROV1 ovarian
PC-3 prostate = test system: PC-3 prostate
SF-295 CNS = test system: SF-295 CNS
COLO 205 colon = test system: COLO 205 colon
KM12 colon = test system: KM12 colon
NCI/ADR-RES ovarian = test system: NCI/ADR-RES ovarian
HCT-15 colon = test system: HCT-15 colon
HS 578T breast = test system: HS 578T breast
HOP-92 NSCLC = test system: HOP-92 NSCLC
SNB-19 CNS = test system: SNB-19 CNS
HOP-62 NSCLC = test system: HOP-62 NSCLC
HT29 colon = test system: HT29 colon
T-47D breast = test system: T-47D breast
MDA-N = test system: MDA-N
SN12C renal = test system: SN12C renal
HL-60(TB) leukemia = test system: HL-60(TB) leukemia
M14 melanoma = test system: M14 melanoma
NCI-H226 lung = test system: NCI-H226 lung
786-0 renal = test system: 786-0 renal

Measured: TGI

CC(=O)NC(Cc1c[nH]c2ccccc12)C(=O)O (stereo not given)
> 100 µM: all assays above
